From patent publication US20190275035A1, “WNT ANTAGONISTS AND THEIR USE IN METHODS FOR TREATING MYOCARDIAL INFARCTION” (RUPRECHT-KARLS-UNIVERSITÄT HEIDELBERG, priority 2016, published 2019) come the findings set out here.

This assay deals with non-canonical WNT signaling in monocytes/macrophages. As to the kind of experiment: PBMC-derived macrophages stimulated with supernatant of hypoxic AdWIF1-transfected cardiomyocytes. Type of assay: cell-based, rat. The method, then: Neonatal rat ventricular cardiomyocytes (NRVCMs) were isolated as previously described (Hagenmueller et al. 2010). After plating, NRVCMs were allowed to adhere overnight. Cardiomyocytes were cultured under hypoxic conditions (1.5% O2) for either four or 24 hours. Supernatant, RNA and proteins were harvested.
Premade WIF1 and control adenovirus was purchased from Applied Biological Materials Inc. (Richmond, Canada). Adenovirus was amplified according to the manufacturer's instructions. Cardiomyocytes were transfected according to manufacturer's instructions. WIF1 overexpression was allowed to establish for 48 hours. Transfected cardiomyocytes were than cultured under hypoxic conditions as described above (see 1.9).
Adult rats were euthanized using a high dose of pentobarbital. Blood was collected by cardiac puncture into EDTA-coated sample tubes. Mononuclear cells were separated using Histopaque 1083 (Sigma-Aldrich Chemie GmbH, Taufkirchen, Germany) according to manufacturer's instructions. Monocytes/macrophages were allowed to adhere to the cell culture dish for two hours. Non-adherent mononuclear cells were discarded. Macrophages were stimulated with supernatant of hypoxic cardiomyocytes for four hours.
Protein lysates of primary cells and heart tissue were prepared using RIPA buffer supplemented with phosphatase/proteinase inhibitors (Cell Signaling Technology, Danvers, USA). Protein concentrations were measured using BCA assay (ThermoFisher Scientific, Waltham, USA). Equal amounts of protein were separated onto four 15% SDS-PAGE gradient gels (Bio-Rad Laboratories GmbH, München, Germany) and transferred to PVDF membranes (Merck Chemicals GmbH, Darmstadt, Germany). The following primary and HPR-conjugated secondary antibodies were used: monoclonal mouse anti-Active-β-Catenin (anti ABC), clone 8E7 (Merck Millipore, Darmstadt, Germany); monoclonal rabbit anti-JNK1+JNK2+JNK3 [EP1597Y] […] Protein expression was analyzed using ImageJ. Protein bands were normalized to GAPDH (respectively actin) loading control for quantification. […]

Setting [1] is: supernatant of WIF1-overexpressing cardiomyocytes vs control cells, FIG. 6B.

Regarding “WIF1: cardiomyocyte-derived WIF1 in supernatant of hypoxic cardiomyocytes transfected with WIF1 adenovirus (AdWIF1)”, under setting [1], the “transcription level of pro-inflammatory cytokine IL1β” value was “reduced” and the “transcription level of pro-inflammatory cytokine IL6” value is on record as “reduced”. Further, the “JNK phosphorylation in isolated monocytes/macrophages” value (supernatant of hypoxic WIF1-overexpressing cardiomyocytes vs control supernatant, FIG. 6A) is “significantly reduced”.
